Series [1] deals with T1, EphA3 (Homo sapiens, UniProt P29320).
T1 construct: A clone of EphA3 kinase domain (residues: 606-947); made in house; host or cells: Escherichia coli BL21 (DE3)
T1 sequence (P29320 606-947): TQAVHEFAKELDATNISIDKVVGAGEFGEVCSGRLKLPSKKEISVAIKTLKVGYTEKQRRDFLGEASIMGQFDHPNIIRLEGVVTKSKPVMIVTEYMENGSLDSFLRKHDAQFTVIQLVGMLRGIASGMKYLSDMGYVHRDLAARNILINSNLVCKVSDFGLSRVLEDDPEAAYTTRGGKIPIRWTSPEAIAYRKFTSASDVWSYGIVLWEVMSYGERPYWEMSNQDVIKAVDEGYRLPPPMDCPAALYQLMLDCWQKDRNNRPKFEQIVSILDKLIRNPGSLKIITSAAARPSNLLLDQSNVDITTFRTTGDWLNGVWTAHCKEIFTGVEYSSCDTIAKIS
Nature of the series: Surface Plasmon Resonance (SPR) determination of Kd. Type of series: binding. Particulars: immobilized EphA3, 20 mM PBS pH 7.4, 150 mM NaCl. From the text: The EphA3-compound dissociation constant (Kd) in Table 2 were obtained following the experimental protocol of Jecklin M.C., et al (Journal of Molecular Recognition 22(4), 319-329), subject to the following modifications: • 1) EphA3 protein was purified as per the protocol given in the "Experimental Section" of Lafleur K., Dong J., Huang D., Caflisch A. and C. Nevado (Journal of Medicinal Chemistry, 2013; 56(1):84-96), under the header "Protein Expression and Purification". Protein concentration was determined using a NanoDrop 1000 from Thermo Scientific (Witec AG, Littau LU, Switzerland). • 2) Under "Instrumentation and reagents": 20 mM PBS pH 7.4, 150 mM NaCl was used as running buffer. • 3) Under "Enzyme immobilization": Following activation of flow cells, 300 µg/ml of EphA3 in immobilization buffer was injected over a 2 minute time period. Residual activated groups on the surface were then blocked by a 7 minute injection of 1 M ethanolamine, pH 8.5. […] Each suspension was then analyzed, commencing from the lowest and proceeding to the highest concentration, and then run in duplicate from the highest to the lowest concentration. During each binding cycle, the compound suspension was injected during a time period of 6 minutes at a flow rate of 5 µl/min and dissociation was monitored for 900 s. […]

Series [2] in a line: In vivo pharmacokinetics in blood plasma. More on the design: species or system male CD-1 (ICD) mice. Particulars: for T1/2 (min, PO) / Cmax / Tmax: 5 mg/kg, PO; for Bio-availability (%): [AUClast(PO)*Dose(IV)] / [AUClast(IV)*Dose(PO)], PO 5 mg/kg, IV 1 mg/kg; for Tmax: read-out: Tmax (min, PO) (converted). The procedure:
Evaluation of the in vivo pharmacokinetics of a subset of compounds was performed through analysis of compound concentration in the blood plasma of male CD-1 (ICD) mice (each weighing 20-30g) over a 24 hour period (at time points of 3, 10, 30, 60, 120, 240, 360 and1440 minutes) following a single oral (PO) and intravenous (IV, in tail vein) administration of a compound dose corresponding to 5 mg of compound/kg of mouse body weight (PO) and 1 mg of compound/kg of mouse body weight (IV). For IV dosing, each compound was formulated as a clear solution in DMSO/Solutol® HS 15/phosphate-buffered saline, pH 7.4 (PBS) (5/5/90, v/v/v). For PO dosing, compounds were formulated as a homogeneous suspension in DMSO/1% methylcellulose (5/95, v/v).
At the relevant time point, blood samples (300-400 µL) were collected from the mice under general inhalant anaesthesia by cardiac puncture and stored on ice in 0.6 mL polypropylene heparin-lithium-coated tubes. Within 1 hour of collection, each tube was centrifuged at 2500 G for 15 minutes at 4°C and harvested plasma stored at -20°C.
Compound concentration in plasma at each time point was determined following acetonitrile precipitation of each sample followed by HPLC-MS analysis performed in triplicates, i.e., based on the mean of the compound concentration at that time point in blood samples of three mice.
T1/2 is the terminal elimination half-life following IV and PO dosing (obtained from non-compartmental analysis (NCA) of the plasma data using WinNonLin). Tmax is the time following PO administration at which the maximum concentration is observed (obtained from non-compartmental analysis (NCA) of the plasma data using WinNonLin). Cmax corresponds to the concentration observed at Tmax following PO administration (obtained from non-compartmental analysis (NCA) of the plasma data using WinNonLin). Bioavailability was calculated as the ratio of: [AUClast(PO)*Dose(IV)] / [AUClast(IV)*Dose(PO)] where AUClast is the area under the curve (estimated by summing incremental areas of a series of trapezoids) of a plot of compound concentration versus time, up to the time of the last observation that is greater than the limit of quantification. Table 6: In vivo pharmacokinetics (min: minutes)

The target in series [3] is T1, EphA3. Nature of the series: Differential Scanning Fluorimetry. Type of series: binding. Conditions: 2 µM EphA3, compound 20µM; read-out: Delta Tm. As to the method:
Cell pellets were resuspended in buffer A (50mM Tris, pH 8.0 and 100mM NaCl, supplemented with protease inhibitors) and lysed by sonication. After centrifugation at 15,000 rpm for 1 h, the soluble fraction of EphA3 was purified using […] (GE healthcare), followed by gel filtration chromatography (Superdex75; GE healthcare). The appropriate fractions were combined and concentrated to ~10 mg/mL using Amicon filter devices (10kDa as cutoff) in a storage solution (100mM sodium chloride and 10mM Tris-HCl pH 8.0, 5% glycerol). The resulting solution was aliquoted and stored at -80°C for further usage.
A final volume of 40µL was added per well in a 96 well plate and incubated at room temperature for 1 h. The plates were centrifuged for 3 min at 450 rcf. The temperature gradient was performed in the range of 25°C-75°C (50 acquisitions per degree at a ramp rate of 4.4°C/s) using a LightCycler 480 Real-Time PCR System. […] All measurements were performed in triplicate.
In general terms: Differential scanning fluorimetry follows unfolding on heating by fluorescence.

[4] abbreviates: male, CD-1 (ICD), mouse, mice plasma.

On to `NC(=O)c1c(N)n(-c2cccc(NC(=O)c3cccc(C(F)(F)F)c3)c2)c2nc3ccccc3nc12` [Compound 10d, 2-amino-1-(3-(3-(trifluoromethyl)benzamido)phenyl)-1H-pyrrolo[2,3-b]quinoxaline-3-carboxamide], for which the Kd (in general, the equilibrium constant for the complex coming apart) on EphA3 [1] came out at 40.1 nM. In addition, the “T1/2 (min, PO)” value in series [2] (mice plasma) is 4.95 h. Also, the “Bio-availability (%)” value in series [2] is reported as 10%. The half-life in series [2] (male, CD-1 (ICD), mouse, IV, 1 mg/kg, mice plasma, read-out: T1/2 (min, IV)) was determined as 1.18 h. Besides, in series [2] (setting [4]), the Cmax (usually the maximum level reached in the sampled fluid or tissue) turned out to be 45 ng/mL and the Tmax (commonly the time from dosing to the highest level) was 2 h. At EphA3 [3], the ΔTm at 20 µM amounted to 7.6 °C.
The compound `NC(=O)c1c(N)n(-c2cccc(C(=O)Nc3cccc(C(F)(F)F)c3)c2)c2nc3ccccc3nc12` [Compound 10c, 2-amino-1-(3-((3-(trifluoromethyl)phenyl)carbamoyl)phenyl)-1H-pyrrolo[2,3-b]quinoxaline-3-carboxamide] had a Kd at EphA3 [1] of 3.7 nM. Further, in series [2] (IV, 1 mg/kg, mice plasma), the “T1/2 (min, IV)” value turned out to be 1.1 h. For the same compound, the “T1/2 (min, PO)” value in series [2] (mice plasma) came out at 2.78 h. For the same compound, the “Bio-availability (%)” value in series [2] is 30%. Moreover, in series [2] (setting [4]), the Cmax turned out to be 164 ng/mL and the Tmax was 1 h. Further, the ΔTm at 20 µM at EphA3 [3] is 9.1 °C.
